# Source: PubChem BioAssay AID1259407 (Chemical Carcinogenesis Research Information System (CCRIS), 2018)
# Active and inactive are the calls of the source. No rule for the calls is given here.
# Test system: CCRIS mutagenicity, Ames/micronucleus/aberration tests
# Experiment: CCRIS mutagenicity studies
# [1] = Test System: AMES SALMONELLA TYPHIMURIUM, Strain/Indicator: TA98, Metabolic Activation: NONE, Method: STANDARD PLATE
# [2] = Test System: AMES SALMONELLA TYPHIMURIUM, Strain/Indicator: TA98, Metabolic Activation: RAT, LIVER, S-9, AROCLOR 1254, Method: STANDARD PLATE
# [3] = Test System: AMES SALMONELLA TYPHIMURIUM, Strain/Indicator: TA100, Metabolic Activation: RAT, LIVER, S-9, AROCLOR 1254, Method: STANDARD PLATE
# [4] = Test System: AMES SALMONELLA TYPHIMURIUM, Strain/Indicator: TA1535, Metabolic Activation: NONE, Method: STANDARD PLATE
# [5] = Test System: AMES SALMONELLA TYPHIMURIUM, Strain/Indicator: TA1535, Metabolic Activation: RAT, LIVER, S-9, AROCLOR 1254, Method: STANDARD PLATE
# [6] = Test System: AMES SALMONELLA TYPHIMURIUM, Strain/Indicator: TA1537, Metabolic Activation: NONE, Method: STANDARD PLATE
# [7] = Test System: AMES SALMONELLA TYPHIMURIUM, Strain/Indicator: TA1537, Metabolic Activation: RAT, LIVER, S-9, AROCLOR 1254, Method: STANDARD PLATE
# [8] = Test System: AMES SALMONELLA TYPHIMURIUM, Strain/Indicator: TA1538, Metabolic Activation: NONE, Method: STANDARD PLATE
# [9] = Test System: AMES SALMONELLA TYPHIMURIUM, Strain/Indicator: TA100, Metabolic Activation: NONE, Method: STANDARD PLATE
# [10] = Test System: AMES SALMONELLA TYPHIMURIUM, Strain/Indicator: TA102, Metabolic Activation: NONE, Method: STANDARD PLATE
smiles,measurement,setting,value
O=C1c2cccc(O)c2C(=O)c2cccc(O)c21,mutagenic call,[1],active; positive
same,mutagenic call,[2],active; positive
same,mutagenic call,[3],inactive; negative
same,mutagenic call,[4],inactive; negative
same,mutagenic call,[5],inactive; negative
same,mutagenic call,[6],active; positive
same,mutagenic call,[7],active; positive
same,mutagenic call,"Test System: AMES SALMONELLA TYPHIMURIUM, Strain/Indicator: TA1537, Metabolic Activation: RAT, LIVER, S-9, Method: PREINCUBATION",active; positive
same,mutagenic call,[8],active; positive
same,mutagenic call,"Test System: AMES SALMONELLA TYPHIMURIUM, Strain/Indicator: TA1978, Metabolic Activation: NONE, Method: STANDARD PLATE",inactive; negative
same,mutagenic call,"Test System: AMES SALMONELLA TYPHIMURIUM, Strain/Indicator: TA1978, Metabolic Activation: RAT, LIVER, S-9, AROCLOR 1254, Method: STANDARD PLATE",inactive; negative
same,mutagenic call,"Test System: AMES SALMONELLA TYPHIMURIUM, Strain/Indicator: TA2637, Metabolic Activation: RAT, LIVER, S-9, 5,6-BENZOFLAVONE AND/OR SODIUM PHENOBARBITAL, Method: PREINCUBATION",active; positive
same,mutagenic call,"Test System: AMES SALMONELLA TYPHIMURIUM, Strain/Indicator: TA2637, Metabolic Activation: RAT, LIVER, S-105, 5,6-BENZOFLAVONE AND/OR SODIUM PHENOBARBITAL, Method: PREINCUBATION",inactive; negative
O=Cc1c([N+](=O)[O-])cccc1[N+](=O)[O-],mutagenic call,"Test System: AMES SALMONELLA TYPHIMURIUM, Strain/Indicator: TA98, Metabolic Activation: NONE, Method: PREINCUBATION",active; positive
same,mutagenic call,"Test System: AMES SALMONELLA TYPHIMURIUM, Strain/Indicator: TA98, Metabolic Activation: RAT, LIVER, S-9, PHENOBARBITAL AND 5,6-BENZOFLAVONE, Method: PREINCUBATION",inactive; negative
same,mutagenic call,"Test System: AMES SALMONELLA TYPHIMURIUM, Strain/Indicator: TA100(1,8-DNP6), Metabolic Activation: NONE, Method: SUSPENSION/PLATE",active; positive
same,mutagenic call,"Test System: AMES SALMONELLA TYPHIMURIUM, Strain/Indicator: TA100(NR), Metabolic Activation: NONE, Method: SUSPENSION/PLATE",active; positive
same,mutagenic call,"Test System: AMES SALMONELLA TYPHIMURIUM, Strain/Indicator: TA100, Metabolic Activation: NONE, Method: PREINCUBATION",active; positive
same,mutagenic call,"Test System: AMES SALMONELLA TYPHIMURIUM, Strain/Indicator: TA100, Metabolic Activation: NONE, Method: SUSPENSION/PLATE",active; positive
same,mutagenic call,"Test System: AMES SALMONELLA TYPHIMURIUM, Strain/Indicator: TA100, Metabolic Activation: RAT, LIVER, S-9, PHENOBARBITAL AND 5,6-BENZOFLAVONE, Method: PREINCUBATION",active; positive
COC1=CC(=O)c2c(ncc3c2[nH]c2ccncc23)C1=O,mutagenic call,"Test System: AMES SALMONELLA TYPHIMURIUM, Strain/Indicator: TA97A, Metabolic Activation: NONE, Method: STANDARD PLATE",active; positive
same,mutagenic call,"Test System: AMES SALMONELLA TYPHIMURIUM, Strain/Indicator: TA97A, Metabolic Activation: RAT LIVER S-9, AROCLOR 1254, Method: STANDARD PLATE",inactive; negative
same,mutagenic call,[1],active; positive
same,mutagenic call,"Test System: AMES SALMONELLA TYPHIMURIUM, Strain/Indicator: TA98, Metabolic Activation: RAT LIVER S-9, AROCLOR 1254, Method: STANDARD PLATE",active; positive
same,mutagenic call,[9],active; positive
same,mutagenic call,"Test System: AMES SALMONELLA TYPHIMURIUM, Strain/Indicator: TA100, Metabolic Activation: RAT LIVER S-9, AROCLOR 1254, Method: STANDARD PLATE",active; positive
same,mutagenic call,[10],active; positive
same,mutagenic call,"Test System: AMES SALMONELLA TYPHIMURIUM, Strain/Indicator: TA102, Metabolic Activation: RAT LIVER S-9, AROCLOR 1254, Method: STANDARD PLATE",active; positive
CC(C)NCC(O)COc1cccc2[nH]ccc12 (stereo unspecified),mutagenic call,"Test System: AMES SALMONELLA TYPHIMURIUM, Strain/Indicator: TA98, Metabolic Activation: NONE",inactive; negative
same,mutagenic call,"Test System: AMES SALMONELLA TYPHIMURIUM, Strain/Indicator: TA98, Metabolic Activation: RAT, LIVER, S-9, AROCLOR 1254",inactive; negative
same,mutagenic call,"Test System: AMES SALMONELLA TYPHIMURIUM, Strain/Indicator: TA100, Metabolic Activation: NONE",inactive; negative
same,mutagenic call,"Test System: AMES SALMONELLA TYPHIMURIUM, Strain/Indicator: TA100, Metabolic Activation: RAT, LIVER, S-9, AROCLOR 1254",inactive; negative
same,mutagenic call,"Test System: AMES SALMONELLA TYPHIMURIUM, Strain/Indicator: TA1535, Metabolic Activation: NONE",inactive; negative
same,mutagenic call,"Test System: AMES SALMONELLA TYPHIMURIUM, Strain/Indicator: TA1535, Metabolic Activation: RAT, LIVER, S-9, AROCLOR 1254",inactive; negative
same,mutagenic call,"Test System: AMES SALMONELLA TYPHIMURIUM, Strain/Indicator: TA1537, Metabolic Activation: NONE",inactive; negative
same,mutagenic call,"Test System: AMES SALMONELLA TYPHIMURIUM, Strain/Indicator: TA1537, Metabolic Activation: RAT, LIVER, S-9, AROCLOR 1254",inactive; negative
C[n+]1ccc(-c2cc[n+](C)cc2)cc1,mutagenic call,"End Point: IN VIVO MICRONUCLEUS, Test System: BONE MARROW POLYCHROMATIC ERYTHROCYTES, Species: RAT, Strain/Sex: SPRAGUE DAWLEY/MALE, Route: DERMAL",active; positive; maximal response at 48 hr
same,mutagenic call,[10],inactive; negative
same,mutagenic call,"Test System: AMES SALMONELLA TYPHIMURIUM, Strain/Indicator: TA2638, Metabolic Activation: NONE, Method: STANDARD PLATE",inactive; negative
same,mutagenic call,"Test System: CHINESE HAMSTER G10, Strain/Indicator: G10 (GPT)/6-THIOGUANINE, Metabolic Activation: NONE",inactive; negative
same,mutagenic call,"Test System: CHINESE HAMSTER G12, Strain/Indicator: G12 (GPT)/6-THIOGUANINE, Metabolic Activation: NONE",inactive; negative
same,mutagenic call,"Test System: CHINESE HAMSTER V-79, Strain/Indicator: V-79 (HPRT)/6-THIOGUANINE, Metabolic Activation: NONE",inactive; negative
same,mutagenic call,"Test System: E. COLI, Strain/Indicator: WP2 (PKM101), Metabolic Activation: NONE, Method: STANDARD PLATE",inactive; negative
same,mutagenic call,"Test System: E. COLI, Strain/Indicator: WP2 UVRA (PKM101), Metabolic Activation: NONE, Method: STANDARD PLATE",inactive; negative
Nc1cc([N+](=O)[O-])c(N)cc1F,mutagenic call,[1],active; positive
same,mutagenic call,[2],active; positive
same,mutagenic call,[9],inactive; negative
same,mutagenic call,[3],active; positive
same,mutagenic call,[4],inactive; negative
same,mutagenic call,[5],inactive; negative
same,mutagenic call,[6],active; positive
same,mutagenic call,[7],active; positive
same,mutagenic call,[8],active; positive
same,mutagenic call,"Test System: AMES SALMONELLA TYPHIMURIUM, Strain/Indicator: TA1538, Metabolic Activation: RAT, LIVER, S-9, AROCLOR 1254, Method: STANDARD PLATE",active; positive
OCC(O)CN1CCN(c2ccccc2)CC1 (stereo unspecified),mutagenic call,"Test System: CHINESE HAMSTER V-79, Strain/Indicator: V-79/6-THIOGUANINE, Metabolic Activation: NONE",inactive; negative
same,mutagenic call,"Test System: CHINESE HAMSTER V-79, Strain/Indicator: V-79/6-THIOGUANINE, Metabolic Activation: S-9",inactive; negative
